According to patent EP0973746B1, “SUBSTITUTED 3-CYANO QUINOLINES” (Wyeth Holdings Corporation, priority 1997, dated 1998):
≈ marks a conversion by molar mass, not a printed value. Like-named read-outs stand apart in the source and are kept apart here.

What was measured:
[1] = biological target: epidermal growth factor receptor kinase (Homo sapiens, UniProt P00533); assay: biochemical
[2] = biological target: T1, His-tagged cytoplasmic domain of EGFR (Homo sapiens, UniProt P00533); assay: Inhibition of Epidermal Growth Factor Receptor Kinase (EGF-R) using recombinant enzyme; type: biochemical; conditions: recombinant enzyme; RR-SRC peptide; average of the number of tests; read-out: IC50;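 further: radiometric kinase assay measuring radiolabeled phosphate transfer from ATP onto the peptide tyrosine by scintillation counting, control is reaction without compound, background subtracted, IC50 from dose-response curve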
T1 construct: containing the EGFR cDNA encoding amino acids 645 - 1186 preceded by Met-Ala-(His)6; made in house; host or cells: Sf9 cells, recombinant baculovirus vHcEGFR52
Description: The enzyme used in this assay is the His-tagged cytoplasmic domain of EGFR.
Compounds to be evaluated were made into 10 mg/mL stock solutions in 100% dimethylsulfoxide (DMSO). Prior to experiment, stock solutions were diluted to 500 µM with 100% DMSO and then serially diluted to the desired concentration with HEPES buffer (30 mM HEPES pH 7.4).
For the enzyme reaction, 10 µL of each inhibitor (at various concentrations) were added to each well of a 96-well plate. […] This was allowed to sit for 10 min on ice and was followed by the addition of 5 µl peptide (80 µM final conc.), 10µl of 4X Buffer (Table A), 0.25 µL ^33P-ATP and 12 µL H2O. The reaction was allowed to run for 90 min at room temperature and was followed by spotting the entire volume on to precut P81 filter papers. The filter discs were washed 2X with 0.5% phosphoric acid and radioactivity was measured using a liquid scintillation counter.
The % inhibition of the test compound was determined for at least three different concentrations and the IC50 value was evaluated from the dose response curve. […] CPM(control) is in units of counts per minute and was a number expressing the amount of radiolabeled ATP (g-33P) incorporated into the RR-SRC peptide substrate by the enzyme after 90 minutes at room temperature in the absence of test compound as measured by liquid scintillation counting. The CPM values were corrected for the background counts produced by ATP in the absence of the enzymatic reaction. The IC50 values reported in TABLE 2 are averages of the number of tests conducted.

[3] = test system: SW620; assay: Inhibition of cancer cell growth as measured by cell number, SW620; type: cell-based, human; conditions: Homo sapiens, SW-620, 48 h;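 further: SW620 was included as a cell line with little or no EGFR or HER2/neu expression, in contrast to receptor-overexpressing lines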
Excerpt: (§1) The cell lines were chosen since they overexpressed epidermal growth factor receptor (EGFR) (i.e. A431) or HER2/neu (SKBR3), or had little to no expression of the these receptors (SW620, LOX, MCF7).

[4] = test system: A431; assay: Inhibition of cancer cell growth as measured by cell number, A431; type: cell-based, human; conditions: Homo sapiens, A-431, 48 h;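 further: human A431 line, picked because it overexpresses epidermal growth factor receptor (EGFR)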
Excerpt: as §1

[5] = test system: SKBR3; assay: Inhibition of cancer cell growth as measured by cell number, SKBR3; type: cell-based, human; conditions: Homo sapiens, SK-BR-3, 48 h;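 further: SK-BR-3 cells were selected as a line overexpressing HER2/neu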
Excerpt: as §1

[6] = biological target: Epithelial Cell Kinase (ECK) (Homo sapiens, UniProt P29317); assay: biochemical
[7] = biological target: T2, Kinase insert Domain containing Receptor (KDR: the catalytic domain of the VEGF receptor) (Homo sapiens, UniProt P35968); assay: Inhibition of Kinase insert Domain containing Receptor (KDR); type: biochemical; conditions: pH 7.2; radioactive format; read-out: KDR IC50 (converted);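 further: KDR phosphorylating a Glu:Tyr 4:1 copolymer with P32- or P33-labelled ATP, Mg++ and vanadate, read as acid-insoluble radiolabel, compared with compound-free reaction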
T2 construct: KDR: the catalytic domain of the VEGF receptor

[8] = biological target: recombinant human MEK 1 (MAPKK) and recombinant human ERK2 (MAPK); assay: Mitogen Activated Protein Kinase (MAPK) assay, two component coupled MEK 1 / ERK2; type: biochemical; conditions: separate entries for the same compound = evaluated more than one time;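 further: MEK 1-activated ERK2 phosphorylates MBP or Myc peptide with 33P-ATP, filter capture and scintillation counting, inhibitor preincubated with ERK2 30 min at 0 °C, inhibition relative to uninhibited control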
[9] = test system: CX1; assay: Inhibition of cancer cell growth as measured by cell number, CX1; type: cell-based; conditions: Homo sapiens, CX-1, 48 h, read-out: IC50 CX1
[10] = test system: LS174T; assay: Inhibition of cancer cell growth as measured by cell number, LS174T; type: cell-based; conditions: Homo sapiens, 48 h, read-out: IC50 LS174T
[11] = test system: CCL228; assay: Inhibition of cancer cell growth as measured by cell number, CCL228; type: cell-based; conditions: Homo sapiens, 48 h, read-out: IC50 CCL228
[12] = test system: MCF7; assay: Inhibition of cancer cell growth as measured by cell number, MCF7; type: cell-based, human; conditions: Homo sapiens, MCF7, 48 h, read-out: IC50 MCF7, cell number, Sulforhodamine B, 48 hours exposure; Table 5;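 further: MCF7 was included as a line with little or no EGFR or HER2/neu expression, in contrast to the receptor-overexpressing lines of the panel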
Excerpt: as §1

[13] = test system: T47D; assay: Inhibition of cancer cell growth as measured by cell number, T47D; type: cell-based; conditions: Homo sapiens, 48 h, read-out: IC50 T47D
[14] = test system: LOX; assay: Inhibition of cancer cell growth as measured by cell number, LOX; type: cell-based, human; conditions: Homo sapiens, LOX, 48 h, read-out: IC50 LOX, cell number, Sulforhodamine B, 48 hours exposure; Table 6;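 further: LOX cells served as a line with low or absent EGFR and HER2/neu expression, in contrast to receptor-overexpressing lines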
Excerpt: as §1

[15] = test system: LNCAP; assay: Inhibition of cancer cell growth as measured by cell number, LNCAP; type: cell-based; conditions: Homo sapiens, 48 h, read-out: IC50 LNCAP
[16] = test system: SW948; assay: Inhibition of cancer cell growth as measured by cell number, SW948; type: cell-based; conditions: Homo sapiens, SW948, 48 h, read-out: IC50 SW948
[17] = test system: LX1; assay: Inhibition of cancer cell growth as measured by cell number, LX1; type: cell-based; conditions: Homo sapiens, LX-1, 48 h, read-out: IC50 LX1
[18] = test system: A549; assay: Inhibition of cancer cell growth as measured by cell number, A549; type: cell-based; conditions: Homo sapiens, A549, 48 h, read-out: IC50 A549
[19] = test system: NEC; assay: Inhibition of cancer cell growth as measured by cell number, NEC; type: cell-based; conditions: Homo sapiens, 48 h, read-out: IC50 NEC
[20] = test system: PC3; assay: Inhibition of cancer cell growth as measured by cell number, PC3; type: cell-based; conditions: Homo sapiens, PC-3, 48 h, read-out: IC50 PC3
[21] = test system: CCRF-CFM; assay: Inhibition of cancer cell growth as measured by cell number, CCRF-CFM; type: cell-based; conditions: Homo sapiens, 48 h, read-out: IC50 CCRF-CFM
[22] = test system: COLO205; assay: Inhibition of cancer cell growth as measured by cell number, COLO205; type: cell-based; conditions: Homo sapiens, COLO 205, 48 h, read-out: IC50 COLO205
[23] = test system: HTB161; assay: Inhibition of cancer cell growth as measured by cell number, HTB161; type: cell-based; conditions: Homo sapiens, 48 h, read-out: IC50 HTB161
[24] = test system: A27805; assay: Inhibition of cancer cell growth as measured by cell number, A27805; type: cell-based; conditions: Homo sapiens, 48 h, read-out: IC50 A27805
[25] = test system: A2780DDP; assay: Inhibition of cancer cell growth as measured by cell number, A2780DDP; type: cell-based; conditions: Homo sapiens, 48 h, read-out: IC50 A2780DDP
[26] = test system: MIP; assay: Inhibition of cancer cell growth as measured by cell number, MIP; type: cell-based; conditions: Homo sapiens; cell number, Sulforhodamine B, 48 hours exposure; Table 4; read-out: IC50 MIP
[27] = test system: CACO2; assay: Inhibition of cancer cell growth as measured by cell number, CACO2; type: cell-based; conditions: Homo sapiens, Caco-2, 48 h, read-out: IC50 CACO2
[28] = test system: HCT15; assay: Inhibition of cancer cell growth as measured by cell number, HCT15; type: cell-based; conditions: Homo sapiens, HCT-15, 48 h, read-out: IC50 HCT15
[29] = test system: B7474; assay: Inhibition of cancer cell growth as measured by cell number, B7474; type: cell-based; conditions: Homo sapiens, 48 h, read-out: IC50 B7474
[30] = test system: DU145; assay: Inhibition of cancer cell growth as measured by cell number, DU145; type: cell-based; conditions: Homo sapiens, DU-145, 48 h, read-out: IC50 DU145
[31] = test system: HL60; assay: Inhibition of cancer cell growth as measured by cell number, HL60; type: cell-based; conditions: Homo sapiens, HL-60, 48 h, read-out: IC50 HL60
[32] = read-out: IC50 SW620, cell number, Sulforhodamine B, 48 hours exposure, Table 4
[33] = read-out: IC50 SKBR3, cell number, Sulforhodamine B, 48 hours exposure, Table 7

Chain of epidermal growth factor receptor kinase (P00533 25-1210): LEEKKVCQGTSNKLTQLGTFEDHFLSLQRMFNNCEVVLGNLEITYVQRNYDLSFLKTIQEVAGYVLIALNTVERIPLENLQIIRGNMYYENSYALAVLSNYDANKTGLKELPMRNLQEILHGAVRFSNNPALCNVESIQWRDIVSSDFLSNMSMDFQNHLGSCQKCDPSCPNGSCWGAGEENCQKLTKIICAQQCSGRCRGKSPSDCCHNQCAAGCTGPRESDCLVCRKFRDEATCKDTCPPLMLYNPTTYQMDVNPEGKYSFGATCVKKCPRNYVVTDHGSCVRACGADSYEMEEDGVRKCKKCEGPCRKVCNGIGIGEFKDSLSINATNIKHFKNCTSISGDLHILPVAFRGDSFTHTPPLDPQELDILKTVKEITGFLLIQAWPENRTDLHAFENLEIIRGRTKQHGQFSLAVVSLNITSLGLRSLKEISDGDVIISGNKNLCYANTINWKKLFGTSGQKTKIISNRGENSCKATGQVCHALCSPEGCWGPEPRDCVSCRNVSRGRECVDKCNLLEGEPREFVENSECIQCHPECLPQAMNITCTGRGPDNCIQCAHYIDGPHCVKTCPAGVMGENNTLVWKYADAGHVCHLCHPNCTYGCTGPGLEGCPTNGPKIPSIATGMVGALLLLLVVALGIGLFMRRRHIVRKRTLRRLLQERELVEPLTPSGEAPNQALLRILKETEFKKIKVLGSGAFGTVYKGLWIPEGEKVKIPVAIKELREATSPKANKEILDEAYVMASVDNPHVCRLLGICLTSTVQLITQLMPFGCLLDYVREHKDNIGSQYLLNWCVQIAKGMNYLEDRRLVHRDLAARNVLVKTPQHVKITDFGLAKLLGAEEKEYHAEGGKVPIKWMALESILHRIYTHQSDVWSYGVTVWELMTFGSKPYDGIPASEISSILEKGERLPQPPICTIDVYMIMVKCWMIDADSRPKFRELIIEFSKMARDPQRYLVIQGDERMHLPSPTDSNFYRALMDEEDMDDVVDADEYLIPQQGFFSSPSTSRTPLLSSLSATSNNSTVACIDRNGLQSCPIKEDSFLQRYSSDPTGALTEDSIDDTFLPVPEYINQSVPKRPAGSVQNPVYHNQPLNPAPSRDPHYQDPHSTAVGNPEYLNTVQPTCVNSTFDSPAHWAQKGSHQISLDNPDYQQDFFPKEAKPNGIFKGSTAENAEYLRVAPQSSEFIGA
Chain of Epithelial Cell Kinase (ECK) (P29317 24-976, species assumed): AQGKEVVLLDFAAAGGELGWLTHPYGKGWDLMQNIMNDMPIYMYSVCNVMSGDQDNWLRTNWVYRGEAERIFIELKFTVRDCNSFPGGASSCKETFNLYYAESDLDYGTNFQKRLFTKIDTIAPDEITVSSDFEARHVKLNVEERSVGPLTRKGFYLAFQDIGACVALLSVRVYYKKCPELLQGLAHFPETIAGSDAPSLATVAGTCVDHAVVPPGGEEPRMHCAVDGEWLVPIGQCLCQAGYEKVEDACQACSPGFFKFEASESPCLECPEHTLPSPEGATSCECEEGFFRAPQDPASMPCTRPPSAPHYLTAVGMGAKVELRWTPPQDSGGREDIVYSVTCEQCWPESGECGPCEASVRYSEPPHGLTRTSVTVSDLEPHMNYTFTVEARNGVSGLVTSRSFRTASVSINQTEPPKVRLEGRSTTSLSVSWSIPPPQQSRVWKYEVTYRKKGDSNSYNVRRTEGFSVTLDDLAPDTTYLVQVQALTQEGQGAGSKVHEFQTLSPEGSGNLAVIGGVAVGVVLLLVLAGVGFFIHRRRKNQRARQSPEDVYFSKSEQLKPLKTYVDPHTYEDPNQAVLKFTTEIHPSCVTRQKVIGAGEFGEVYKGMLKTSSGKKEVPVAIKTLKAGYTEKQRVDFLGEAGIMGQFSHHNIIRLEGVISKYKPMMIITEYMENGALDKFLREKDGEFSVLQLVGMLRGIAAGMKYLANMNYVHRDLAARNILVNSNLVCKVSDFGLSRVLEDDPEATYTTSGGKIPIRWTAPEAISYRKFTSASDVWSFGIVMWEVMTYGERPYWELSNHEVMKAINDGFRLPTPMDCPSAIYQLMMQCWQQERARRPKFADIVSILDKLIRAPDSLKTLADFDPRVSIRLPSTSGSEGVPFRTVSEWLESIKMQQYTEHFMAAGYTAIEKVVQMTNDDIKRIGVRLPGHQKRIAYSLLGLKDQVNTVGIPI
T2 sequence (P35968 834-1162 limits assumed): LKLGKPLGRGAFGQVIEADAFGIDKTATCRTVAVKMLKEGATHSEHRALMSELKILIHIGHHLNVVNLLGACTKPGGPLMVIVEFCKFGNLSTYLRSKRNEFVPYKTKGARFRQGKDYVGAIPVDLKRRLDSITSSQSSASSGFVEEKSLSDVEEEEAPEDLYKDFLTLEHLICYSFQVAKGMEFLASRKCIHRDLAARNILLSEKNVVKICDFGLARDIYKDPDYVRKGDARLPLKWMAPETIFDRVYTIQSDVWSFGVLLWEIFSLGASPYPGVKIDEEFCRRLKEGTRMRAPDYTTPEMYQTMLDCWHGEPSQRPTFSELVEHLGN
T1 sequence (P00533 669-1210): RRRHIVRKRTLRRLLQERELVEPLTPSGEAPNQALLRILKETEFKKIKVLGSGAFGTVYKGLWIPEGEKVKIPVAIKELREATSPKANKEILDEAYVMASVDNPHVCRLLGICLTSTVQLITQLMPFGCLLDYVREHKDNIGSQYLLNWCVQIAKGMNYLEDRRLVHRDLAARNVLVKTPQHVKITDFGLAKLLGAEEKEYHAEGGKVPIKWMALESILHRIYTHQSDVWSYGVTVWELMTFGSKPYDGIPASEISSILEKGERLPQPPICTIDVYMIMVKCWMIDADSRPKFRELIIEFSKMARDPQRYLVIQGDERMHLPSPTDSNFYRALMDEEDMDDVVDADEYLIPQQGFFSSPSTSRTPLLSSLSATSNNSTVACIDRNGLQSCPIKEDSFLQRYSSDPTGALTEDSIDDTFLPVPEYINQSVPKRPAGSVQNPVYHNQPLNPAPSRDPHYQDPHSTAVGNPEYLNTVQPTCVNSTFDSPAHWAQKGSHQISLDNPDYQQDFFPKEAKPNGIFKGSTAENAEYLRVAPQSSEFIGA

| Structure (SMILES) | IC50 [1] | IC50 [6] | IC50 [8] | IC50 [3, 32] | IC50 [9] | IC50 [11] | IC50 [12] | IC50 [13] | IC50 [14] | IC50 [15] | IC50 [5, 33] | IC50 [16] | other results |
| --- | --- | --- | --- | --- | --- | --- | --- | --- | --- | --- | --- | --- | --- |
| N#Cc1cnc2ccc(NC(=O)/C=C/Cl)cc2c1Nc1cccc(Br)c1 [Example 51, N-[4-[(3-Bromophenyl)amino]-3-cyano-6-quinolinyl]-3(E)-chloro-2-propenamide] | 0.05 nM |  |  |  |  |  |  |  |  |  |  |  |  |
| CN(C)CC=CC(=O)Nc1ccc2ncc(C#N)c(Nc3ccc(F)c(Cl)c3)c2c1 [Example 145] |  | > 47.2 µM | 35 µM |  |  |  |  |  |  |  |  |  | IC50 [2]: 60 nM; IC50 ([3]; read-out: IC50 SW620): 0.4 µg/mL (≈ 0.944 µM); IC50 ([4]; read-out: IC50 A431): 0.03 µg/mL (≈ 0.0708 µM); IC50 ([5]; read-out: IC50 SKBR3): 0.03 µg/mL (≈ 0.0708 µM); IC50 [7]: > 70800 nM |
| COc1ccc(Nc2c(C#N)cnc3cc(OC)c(OC)cc23)cc1OC [Example 43, 4-[(3,4-Dimethoxyphenyl)amino]-6,7-dimethoxy-3-quinolinecarbonitrile] |  |  | 30 µM | 4.33 µg/mL (≈ 11.8 µM) | 3.43 µg/mL (≈ 9.38 µM) | 2.56 µg/mL (≈ 7 µM) | 5.83 µg/mL (≈ 16 µM) | 4.5 µg/mL (≈ 12.3 µM) | 2.86 µg/mL (≈ 7.83 µM) | 4.53 µg/mL (≈ 12.4 µM) | 5.19 µg/mL (≈ 14.2 µM) |  | IC50 [10]: 4.22 µg/mL (≈ 11.6 µM) |
| COc1cc2ncc(C#N)c(Nc3cccc(CO)c3)c2cc1OC [Example 48, 4-[(3-(hydroxymethyl)phenyl)amino]-6,7-dimethoxy-3-quinolinecarbonitrile] |  |  |  | > 100 µg/mL | 59.2 µg/mL (≈ 177 µM) | > 100 µg/mL | 79.3 µg/mL (≈ 236 µM) | > 100 µg/mL | 47 µg/mL (≈ 140 µM) | 40.6 µg/mL (≈ 121 µM) | 64.5 µg/mL (≈ 192 µM) | > 100 µg/mL | IC50 [17]: > 100 µg/mL; IC50 [18]: > 100 µg/mL; IC50 [19]: > 100 µg/mL; IC50 [20]: > 100 µg/mL; IC50 [21]: > 100 µg/mL |
| N#Cc1cnc2ccc([N+](=O)[O-])cc2c1Nc1cccc(C(F)(F)F)c1 [Example 23, 6-Nitro-4[(3-trifluoromethylphenyl)amino]-3-quinolinecarbonitrile] |  | 27.9 µM | > 100 µM |  |  |  |  |  |  |  |  | > 100 µg/mL | IC50 ([3]; read-out: IC50 SW620): > 100 µg/mL; IC50 [22]: > 100 µg/mL |
| C=C(C)C(=O)Nc1ccc2ncc(C#N)c(Nc3cccc(Br)c3)c2c1 [Example 53, N-[4-[(3-Bromophenyl)amino]-3-cyano-6-quinolinyl]-2-methyl-2-propenamide] | 7 nM |  |  |  |  |  |  |  |  |  |  |  |  |
| C=CC(=O)Nc1ccc2ncc(C#N)c(Nc3ccc(Br)c(Br)c3)c2c1 [Example 54, N-[4-[(3,4-Dibromophenyl)amino]-3-cyano-6-quinolinyl]-2-propenamide] | 7 nM |  |  |  |  |  |  |  |  |  |  |  |  |
| COc1cc2ncc(C#N)c(Nc3cccc(Br)c3)c2cc1[N+](=O)[O-] [Example 6] |  |  | > 100 µM | 4.71 µg/mL (≈ 11.8 µM) | 3.02 µg/mL (≈ 7.58 µM) | 2.35 µg/mL (≈ 5.88 µM) | 4.27 µg/mL (≈ 10.7 µM) | 3.26 µg/mL (≈ 8.18 µM) | 0.813 µg/mL (≈ 2.04 µM) | 4.19 µg/mL (≈ 10.5 µM) | 4.2 µg/mL (≈ 10.5 µM) | 5.2 µg/mL (≈ 13 µM) | IC50 [23]: 1.66 µg/mL (≈ 4.15 µM); IC50 [24]: 2.49 µg/mL (≈ 6.23 µM); IC50 [25]: 3.22 µg/mL (≈ 8.06 µM); IC50 [26]: 0.95 µg/mL (≈ 2.38 µM); IC50 [22]: 5.51 µg/mL (≈ 13.8 µM); IC50 [27]: 0.808 µg/mL (≈ 2.02 µM); IC50 [28]: 1.75 µg/mL (≈ 4.38 µM); IC50 [10]: 2.67 µg/mL (≈ 6.7 µM); IC50 [29]: 3.76 µg/mL (≈ 9.41 µM); IC50 [17]: 5.55 µg/mL (≈ 13.9 µM); IC50 [18]: 4.45 µg/mL (≈ 11.1 µM); IC50 ([4]; read-out: IC50 A431, cell number, Sulforhodamine B, 48 hours exposure, Table 6): 0.845 µg/mL (≈ 2.12 µM); IC50 [19]: 4.17 µg/mL (≈ 10.4 µM); IC50 [30]: 1.03 µg/mL (≈ 2.59 µM); IC50 [20]: 4.69 µg/mL (≈ 11.7 µM); IC50 [31]: 0.947 µg/mL (≈ 2.37 µM); IC50 [21]: 2.57 µg/mL (≈ 6.44 µM) |
| COc1cc2c(Nc3ccc(Cl)cc3F)c(C#N)cnc2cc1OCCCCl [Example 76, 4-(4-Chloro-2-fluoro-phenylamino)-7-(3-chloro-propoxy)-6-methoxy-quinoline-3-carbonitrile] |  | 0.466 µM | < 1 µM |  |  |  |  |  |  |  |  |  | IC50 [7]: 1670 nM |
